Experimental data from PMC3776224, “Investigation of acyclic uridine amide and 5′-amido nucleoside analogues as potential inhibitors of the Plasmodium falciparum dUTPase^” (Bioorganic & Medicinal Chemistry, 2013).
Like-named read-outs stand apart in the source and are kept apart here.

Legend:
[1] = molecular target: T1, recombinant PfdUTPase (Plasmodium falciparum, UniProt Q8II92); test: PfdUTPase enzyme inhibition assay (dUTP hydrolysis, Ki); assay type: biochemical; conditions: for Ki: read-out: Enzyme assay, Ki P.fal
T1 construct: made in house; host or cells: E. coli BL21 (DE3)
T1 sequence (Q8II92 1-173): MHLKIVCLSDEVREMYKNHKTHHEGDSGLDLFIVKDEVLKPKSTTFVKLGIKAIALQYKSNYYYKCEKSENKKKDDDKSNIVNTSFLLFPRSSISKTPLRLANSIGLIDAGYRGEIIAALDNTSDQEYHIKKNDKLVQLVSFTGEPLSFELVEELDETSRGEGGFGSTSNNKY
Experimental: (§1) Biological activity was evaluated by testing all compounds against the recombinant PfdUTPase and human dUTPase (HsdUTPase) in order to determine inhibition constants and selectivity.
Both recombinant P. falciparum and human dUTPases were expressed in E. coli BL21 (DE3) cells which had been transformed with the pET11Pfdut and pET3Hudut (kindly provided by P.O. Nyman, Lund University, Sweden) expression vectors, respectively. For dUTPase purification, the same procedure was used for both the human and the Plasmodium enzymes. Cell pellets from a 2.8 L IPTG-induced culture were resuspended in 70 mL of buffer A (20 mM MES, 50 mM NaCl, 1 mM DTT, pH 5.5) containing a protease inhibitor cocktail. The cells were lysed by sonication, and the cell extract was cleared by centrifugation at 14,000 rpm for 30 min. The supernatant was loaded onto a 40 mL phosphocellulose (Whatman P-11) column at 4 °C and eluted with a 50 mM to 1 M NaCl gradient in buffer A. Protein was further purified by gel filtration chromatography on a Superdex 200 HA 10/30 column at 4 °C. Pooled fractions were concentrated by centrifugation at 4 °C and desalted using a PD-10 column. The enzyme was stored in 10 mM bicine and 5 mM MgCl2, pH 8 at −80 °C.
(§2) Nucleotide hydrolysis was monitored by mixing enzyme and substrate with a rapid kinetic accessory (Hi-Tech Scientific) attached to a spectrophotometer (Cary 50) and connected to a computer for data acquisition and storage as described previously.[17] Protons, released through the hydrolysis of nucleotides, were neutralized by a pH indicator in weak buffered medium with similar pKa and monitored spectrophotometrically at the absorbance peak of the basic form of the indicator. The ratio between the indicator and the buffer concentration was 50:[…], and the absorbance changes were kept within 0.1 units. The indicator/buffer pair used was red cresol/bicine (pH 8, 573 nm). Assay mixes contained 30 nM PfdUTPase, 50 μM dUTP, 5 mM MgCl2, 1 mg/mL BSA, and 100 mM KCl. Vmax and KMapp were calculated by fitting the resulting data to the integrated Michaelis–Menten equation.

[2] = molecular target: T2, human dUTPase (HsdUTPase) (Homo sapiens, UniProt P33316); test: Human dUTPase enzyme inhibition assay (dUTP hydrolysis, Ki); assay type: biochemical; conditions: recombinant human dUTPase; read-out: Enzyme assay, Ki H. sap.
T2 construct: made in house; host or cells: E. coli BL21 (DE3)
T2 sequence (P33316 112-252 limits assumed): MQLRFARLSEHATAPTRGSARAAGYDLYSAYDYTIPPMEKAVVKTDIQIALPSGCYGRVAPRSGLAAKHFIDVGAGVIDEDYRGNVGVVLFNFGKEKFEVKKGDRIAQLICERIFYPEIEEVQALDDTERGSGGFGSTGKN
Experimental: as §1
Both recombinant P. falciparum and human dUTPases were expressed in E. coli BL21 (DE3) cells which had been transformed with the pET11Pfdut and pET3Hudut (kindly provided by P.O. Nyman, Lund University, Sweden) expression vectors, respectively. For dUTPase purification, the same procedure was used for both the human and the Plasmodium enzymes. Cell pellets from a 2.8 L IPTG-induced culture were resuspended in 70 mL of buffer A (20 mM MES, 50 mM NaCl, 1 mM DTT, pH 5.5) containing a protease inhibitor cocktail. […]
as §2, with “The indicator/buffer pair used was red cresol/bicine (pH 8, 573 nm). Assay mixes contained 30 nM PfdUTPase, 50 μM dUTP, 5 mM MgCl2, 1 mg/mL BSA, and 100 mM KCl. Vmax and KMapp were calculated by fitting the resulting data to the integrated Michaelis–Menten equation.” left out

[3] = test system: L6 cells (rat skeletal myoblast cells); test: Cytotoxicity on rat L6 myoblasts; assay type: cell-based
Experimental: (§3) Activity against P. falciparum K1 strain and cytotoxicity assessment against L6 cells (rat skeletal myoblast cells) was determined as previously reported.[9]

[4] = test system: P. falciparum K1, a chloroquine and pyrimethamine resistant strain; test: In vitro antiplasmodial activity, parasites cultured in erythrocytes; assay type: cell-based; conditions: Plasmodium falciparum, Erythrocyte, mean of two independent assays, read-out: In vitro assays, EC50 P.fal.
Experimental: as §1, §3

[5] = molecular target: T2, human dUTPase (HsdUTPase); conditions: previously reported; read-out: Enzyme assay Ki HsdUTPase; cited from earlier work
[6] = molecular target: T1, recombinant PfdUTPase; conditions: previously reported; cited from earlier work
[7] = test system: L6 cells (rat skeletal myoblast cells); conditions: previously reported, cited from earlier work; for EC50: cytotoxicity on rat L6 myoblasts, mean of two independent assays, read-out: In vitro assays EC50 L6 cells
[8] = test system: P. falciparum K1, a chloroquine and pyrimethamine resistant strain; conditions: mean of two independent assays, previously reported, read-out: In vitro assays EC50 P.f.; cited from earlier work
[9] = recombinant PfdUTPase, 50 μM dUTP, pH 8
[10] = cytotoxicity on rat L6 myoblasts, mean of two independent assays, read-out: In vitro assays, EC50 L6 cells (Tox)

O=C(NCCCn1ccc(=O)[nH]c1=O)C(c1ccccc1)c1ccccc1 [Compound 7, 1-(3-(Diphenylacetylamino)propyl)uracil]
Selectivity index (SI) for enzyme [KiHsdUTPase/KiPfdUTPase] [1]: 26 | Ki [1, 9]: 11 µM | melting point: 145 to 147 °C | Ki [2]: 286 µM | Cell selectivity index (SI) [EC50 L6/EC50 P. falciparum] [3]: 1.3 | EC50 [3, 10]: 18 µM | EC50 [4]: 14 µM

O=C(CCCn1ccc(=O)[nH]c1=O)NC(c1ccccc1)(c1ccccc1)c1ccccc1 [Compound 12, 1-[3-(Tritylaminocarbonyl)propyl]uracil]
Ki [1, 9]: 0.2 µM

O=c1ccn(CCCCNC(c2ccccc2)(c2ccccc2)c2ccccc2)c(=O)[nH]1 [Compound 1f]
Ki [5]: > 1000 µM | Selectivity index (SI) for enzyme [KiHsdUTPase/KiPfdUTPase] [6]: >1111 | EC50 [7]: 33 µM | EC50 [8]: 3.8 µM

O=c1ccn(CCCNC(c2ccccc2)(c2ccccc2)c2ccccc2)c(=O)[nH]1 [Compound 1e]
EC50 [7]: 107 µM | EC50 [8]: 4.4 µM

O=c1ccn(CCCCCCOC(c2ccccc2)(c2ccccc2)c2ccccc2)c(=O)[nH]1 [Compound 1d]
EC50 [7]: 44 µM | EC50 [8]: 2.3 µM

O=C(NCCCn1ccc(=O)[nH]c1=O)C(c1ccccc1)(c1ccccc1)c1ccccc1 [Compound 8, 1-(3-(Triphenylacetylamino)propyl)uracil]
Ki [1, 9]: 6.3 µM | melting point: 154 to 156 °C

O=C(NCCCO)C(c1ccccc1)c1ccccc1 [Compound 3, N-(3-Hydroxypropyl)-2,2-diphenylacetamide]
Ki [1, 9]: > 100 µM | Cell selectivity index (SI) [EC50 L6/EC50 P. falciparum] [3]: 1.0 | EC50 [3, 10]: 18 µM | EC50 [4]: 19 µM

O=C(O)CCCn1ccc(=O)[nH]c1=O [Compound 10, 1-(Carboxypropyl)uracil]
Enzyme assay, Ki P.fal [1, 9]: low affinity | Ki [1, 9]: > 100 µM | melting point: 174 to 176 °C | Cell selectivity index (SI) [EC50 L6/EC50 P. falciparum] [3]: 0.7 | EC50 [3, 10]: 18 µM | EC50 [4]: 25 µM

O=c1ccn(CCCCCNC(c2ccccc2)(c2ccccc2)c2ccccc2)c(=O)[nH]1 [Compound 1g]
Ki [5]: > 1000 µM | EC50 [7]: 39 µM | EC50 [8]: 2.2 µM

O=c1ccn(CCCOC(c2ccccc2)(c2ccccc2)c2ccccc2)c(=O)[nH]1 [Compound 1a]
Selectivity index (SI) for enzyme [KiHsdUTPase/KiPfdUTPase] [6]: 4 | EC50 [7]: 34 µM | EC50 [8]: 7.5 µM

O=C(NCCCO)C(c1ccccc1)(c1ccccc1)c1ccccc1 [Compound 4, N-(3-Hydroxypropyl)-2,2,2-triphenylacetamide]
Ki [1, 9]: 1000 µM | Cell selectivity index (SI) [EC50 L6/EC50 P. falciparum] [3]: 1.9 | EC50 [3, 10]: 19 µM | EC50 [4]: 9.8 µM

O=c1ccn(CCCCOC(c2ccccc2)(c2ccccc2)c2ccccc2)c(=O)[nH]1 [Compound 1b]
Ki [5]: > 1000 µM | EC50 [7]: 42 µM | EC50 [8]: 4.9 µM

COc1cc([C@@H]2c3cc4c(cc3[C@H](O)[C@H]3COC(=O)[C@H]23)OCO4)cc(OC)c1OC [podophyllotoxin, reference compound]
EC50 ([3]; Rattus norvegicus, L6, read-out: In vitro assays, EC50 L6 cells (Tox)): 0.012 µM

O=c1ccn([C@H]2C[C@H](O)[C@@H](CNC(c3ccccc3)(c3ccccc3)c3ccccc3)O2)c(=O)[nH]1 [Compound 2b]
Selectivity index (SI) for enzyme [KiHsdUTPase/KiPfdUTPase] [6]: 232 | EC50 [8]: 4.5 µM

O=C(c1ccccc1)n1c(=O)ccn(CCCNC(=O)C(c2ccccc2)(c2ccccc2)c2ccccc2)c1=O [Compound 6, 3-Benzoyl-(1-(3-(triphenylacetylamino)propyl)uracil)]
Ki [1, 9]: > 100 µM | Cell selectivity index (SI) [EC50 L6/EC50 P. falciparum] [3]: 1.4 | EC50 [3, 10]: 9 µM | EC50 [4]: 6.7 µM

O=c1ccn([C@H]2C[C@H](O)[C@@H](CNC(c3ccccc3)c3ccccc3)O2)c(=O)[nH]1 [Compound 2c]
EC50 [7]: > 229 µM

O=C(NC(c1ccccc1)c1ccccc1)[C@H]1O[C@@H](n2ccc(=O)[nH]c2=O)C[C@@H]1O [Compound 17, 2′,5′-Dideoxyuridine-5′-N-benzhydryl carboxamide]
Selectivity index (SI) for enzyme [KiHsdUTPase/KiPfdUTPase] [1]: >12 | Ki [1, 9]: 8.3 µM | Ki [2]: > 100 µM | EC50 [3, 10]: > 90 µM | EC50 [4]: > 5 µM

O=c1ccn(CCCCCOC(c2ccccc2)(c2ccccc2)c2ccccc2)c(=O)[nH]1 [Compound 1c]
Ki [5]: > 1000 µM | EC50 [7]: 24 µM | EC50 [8]: 1.1 µM

O=c1ccn([C@H]2C[C@H](O)[C@@H](COC(c3ccccc3)(c3ccccc3)c3ccccc3)O2)c(=O)[nH]1 [Compound 2a]
Selectivity index (SI) for enzyme [KiHsdUTPase/KiPfdUTPase] [6]: 10 | EC50 [7]: 192 µM | Cell selectivity index (SI) [EC50 L6/EC50 P. falciparum] [7]: 32 | EC50 [8]: 6 µM

O=c1ccn(CCCCCCNC(c2ccccc2)(c2ccccc2)c2ccccc2)c(=O)[nH]1 [Compound 1h]
Ki [5]: > 1000 µM | Selectivity index (SI) for enzyme [KiHsdUTPase/KiPfdUTPase] [6]: >556 | EC50 [7]: 40 µM | EC50 [8]: 1.1 µM

O=C(CCCn1ccc(=O)[nH]c1=O)NC(c1ccccc1)c1ccccc1 [Compound 11, 1-[3-(Benzhydrylaminocarbonyl)propyl]uracil]
Ki [1, 9]: 0.7 µM
